Laboratory results: US20180208605A1, “Substituted Aza Compounds as IRAK-4 Inhibitors” (AURIGENE DISCOVERY TECHNOLOGIES LIMITED, priority 2015, published 2018)
Counter-ions that a name gives are not always drawn.

Molecular target: T1, recombinant IRAK-4 kinase (Homo sapiens, UniProt Q9NWZ3)
T1 construct: purchased Millipore, USA
T1 sequence (Q9NWZ3 1-460): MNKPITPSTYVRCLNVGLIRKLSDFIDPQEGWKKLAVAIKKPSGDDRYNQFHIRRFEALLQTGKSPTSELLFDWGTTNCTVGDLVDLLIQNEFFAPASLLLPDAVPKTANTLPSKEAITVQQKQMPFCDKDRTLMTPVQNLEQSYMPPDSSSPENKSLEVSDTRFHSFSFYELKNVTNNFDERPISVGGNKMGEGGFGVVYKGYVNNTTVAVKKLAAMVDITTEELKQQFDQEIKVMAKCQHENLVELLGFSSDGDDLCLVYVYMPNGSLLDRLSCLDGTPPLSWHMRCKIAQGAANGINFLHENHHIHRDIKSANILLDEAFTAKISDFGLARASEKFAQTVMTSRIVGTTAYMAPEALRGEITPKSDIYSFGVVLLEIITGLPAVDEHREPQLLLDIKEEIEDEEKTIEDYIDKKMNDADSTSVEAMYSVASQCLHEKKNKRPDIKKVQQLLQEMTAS
Assay: IRAK-4 Biochemical Assay (TR-FRET, percent inhibition)
Details: TR-FRET, 20 μM ATP, 100 nM Biotin Histone H3; for inhibition at 0.1 µM: read-out: % inhibition of IRAK-4 @0.1 μM, compound at 0.1 μM; for inhibition at 1 µM: read-out: % inhibition of IRAK-4 @ 1 μM, compound at 1 μM
Protocol: Compounds were tested for their potential to inhibit IRAK-4 enzyme in a TR-FRET assay using recombinant IRAK-4 kinase from Millipore, USA. The assay buffer was 50 mM Tris-HCl pH 7.5, 20 mM MgCl2, 1 mM EGTA, 2 mM DTT, 3 mM MnCl2 and 0.01% Tween 20.5 ng of IRAK-4 kinase was used for the assay. After pre-incubation of enzyme with test compound for 30 minutes at room temperature, a substrate mixture containing 100 nM Biotin Histone H3 (Millipore, USA) and 20 μM ATP (Sigma, USA) was added and the reaction was incubated for 30 min. Post incubation, the reaction was stopped by the addition of stop mix containing 40 mM EDTA, 1 nM of Europium-Anti-Phospho-Histone H3 (Ser10) antibody (Perkin Elmer, USA) and 20 nM SureLight Allophycocyanin-Streptavidin (Perkin Elmer, USA). The fluorescence emission at 615 nm and 665 nm were measured at an excitation of 340 nm and the percent inhibition was estimated from the ratio of the fluorescence intensities [(F665/F615)×10000].

| inhibition at 0.1 µM [%] | inhibition at 1 µM [%] | SMILES |
| --- | --- | --- |
| 97 | 98 | NC1CCCN(c2ccn3ncc(C(=O)Nc4cc5sc(N6CCOCC6)nc5nc4C4CC4)c3n2)C1 (stereo not drawn) [Example 21, 5-(3-aminopiperidin-1-yl)-N-(5-cyclopropyl-2-morpholinothiazolo[4,5-b]pyridin-6-yl)pyrazolo[1,5-a]pyrimidine-3-carboxamide] |
| 99 | 98 | Nc1cccc(-c2nc(C(=O)Nc3cc4sc(N5CCOCC5)nc4nc3N3CCCCC3)co2)n1 [Example 11, 2-(6-aminopyridin-2-yl)-N-(2-morpholino-5-(piperidin-1-yl)thiazolo[4,5-b]pyridin-6-yl)oxazole-4-carboxamide hydrochloride] |
| 98 | 97 | Cc1cc(-c2c[nH]c(C(=O)Nc3cc4sc(N5CCOCC5)nc4nc3N3CC[C@@H](O)C3)n2)ccn1 [Example 72, (R)-N-(5-(3-hydroxypyrrolidin-1-yl)-2-morpholinothiazolo[4,5-b]pyridin-6-yl)-4-(2-methylpyridin-4-yl)-1H-imidazole-2-carboxamide 2,2,2-trifluoroacetate] |
| 91 | 99 | O=C(Nc1cc2sc(N3CCOCC3)nc2nc1N1CCCCC1)c1ccnc(N2CC[C@@H](O)C2)n1 [Example 59, (R)-2-(3-hydroxypyrrolidin-1-yl)-N-(2-morpholino-5-(piperidin-1-yl)thiazolo[4,5-b]pyridin-6-yl)pyrimidine-4-carboxamide] |
| 95 | 97 | O=C(Nc1cc2sc(N3CCOCC3)nc2nc1N1CCCCC1)c1cccc(N2CC3CC2CO3)n1 (stereo not drawn) [Example 45, 6-(2-oxa-5-azabicyclo[2.2.1]heptan-5-yl)-N-(2-morpholino-5-(piperidin-1-yl)thiazolo[4,5-b]pyridin-6-yl)picolinamide] |
| 98 | 99 | O=C(Nc1cc2sc(N3CCOCC3)nc2nc1N1CCCCC1)c1cccc(N2CCC(CO)C2)n1 (stereo not drawn) [Example 77, 6-(3-(hydroxymethyl)pyrrolidin-1-yl)-N-(2-morpholino-5-(piperidin-1-yl)thiazolo[4,5-b]pyridin-6-yl)picolinamide] |
| 83 | 98 | O=C(Nc1cc2sc(N3CCOCC3)nc2nc1N1CCC[C@@H](O)C1)c1cccc(N2CCCCCC2)n1 [Example 39, (R)-6-(azepan-1-yl)-N-(5-(3-hydroxypiperidin-1-yl)-2-morpholinothiazolo[4,5-b]pyridin-6-yl)picolinamide] |
| 99 | 99 | Cc1cc(-c2nc(C(=O)Nc3cc4sc(N5CCNCC5)nc4nc3N3CCCCC3)co2)ccn1 [Example 7, 2-(2-methylpyridin-4-yl)-N-(2-(piperazin-1-yl)-5-(piperidin-1-yl)thiazolo[4,5-b]pyridin-6-yl)oxazole-4-carboxamide hydrochloride] |
| 90 | 98 | COC1CCN(c2cccc(C(=O)Nc3cc4sc(N5CCOCC5)nc4nc3N3CCCCC3)n2)CC1 [Example 31, 6-(4-methoxypiperidin-1-yl)-N-(2-morpholino-5-(piperidin-1-yl)thiazolo[4,5-b]pyridin-6-yl)picolinamide] |
| 67 | 95 | O=C(Nc1cc2sc(N3CCOCC3)nc2nc1C1CC1)c1cncc(N2CCC(O)C2)n1 (stereo not drawn) [Example 50, N-(5-cyclopropyl-2-morpholinothiazolo[4,5-b]pyridin-6-yl)-6-(3-hydroxypyrrolidin-1-yl)pyrazine-2-carboxamide] |
| 55 | 96 | O=C(Nc1cc2oc(N3CCOCC3)nc2nc1N1CC[C@@H](O)C1)c1cnn2cccnc12 [Example 25, (R)—N-(5-(3-hydroxypyrrolidin-1-yl)-2-morpholinooxazolo[4,5-b]pyridin-6-yl)pyrazolo[1,5-a]pyrimidine-3-carboxamide] |
| 99 | 98 | Nc1cc(-c2cccc(C(=O)Nc3cc4sc(N5CCOCC5)nc4nc3N3CCCCC3)n2)ccn1 [Example 83, 2′-amino-N-(2-morpholino-5-(piperidin-1-yl)thiazolo[4,5-b]pyridin-6-yl)-[2,4′-bipyridine]-6-carboxamide] |
| 98 | 98 | Nc1cc(-c2nc(C(=O)Nc3cc4sc(N5CCOCC5)nc4nc3N3CCCCC3)co2)c(Cl)cn1 [Example 12, 2-(2-amino-5-chloropyridin-4-yl)-N-(2-morpholino-5-(piperidin-1-yl)thiazolo[4,5-b]pyridin-6-yl)oxazole-4-carboxamide] |
| 21 | 56 | NC1CCCN(c2ccn3ncc(C(=O)Nc4cc5sc(N6CCOCC6)nc5nc4N4CC[C@@H](O)C4)c3n2)C1 (stereo partly drawn) [Example 102, 5-(3-aminopiperidin-1-yl)-N-(5-((R)-3-hydroxypyrrolidin-1-yl)-2-morpholinothiazolo[4,5-b]pyridin-6-yl)pyrazolo[1,5-a]pyrimidine-3-carboxamide hydrochloride] |
| 93 | 95 | O=C(Nc1cc2sc(N3CCOCC3)nc2nc1N1CCCCC1)c1cncc(N2CC[C@@H](O)C2)n1 [Example 62, (R)-6-(3-hydroxypyrrolidin-1-yl)-N-(2-morpholino-5-(piperidin-1-yl)thiazolo[4,5-b]pyridin-6-yl)pyrazine-2-carboxamide] |
| 95 | 97 | NCC(=O)N[C@H]1CCN(c2cccc(C(=O)Nc3cc4sc(N5CCOCC5)nc4nc3N3CCCCC3)n2)C1 [Example 27, (S)-6-(3-(2-aminoacetamido)pyrrolidin-1-yl)-N-(2-morpholino-5-(piperidin-1-yl)thiazolo[4,5-b]pyridin-6-yl)picolinamide] |
| 79 | 96 | O=C(Nc1cc2sc(N3CCOCC3)nc2nc1N1CCCCC1)c1cccc(N2CC(C(=O)O)NC2=O)n1 (stereo not drawn) [Example 49, 1-(6-((2-morpholino-5-(piperidin-1-yl)thiazolo[4,5-b]pyridin-6-yl)carbamoyl)pyridin-2-yl)-2-oxoimidazolidine-4-carboxylic acid] |
| 78 | 96 | Nc1ccc(-c2cccc(C(=O)Nc3cc4oc(N5CCOCC5)nc4nc3N3CCOCC3)n2)cn1 [Example 92, 6′-amino-N-(2,5-dimorpholinooxazolo[4,5-b]pyridin-6-yl)-[2,3′-bipyridine]-6-carboxamide hydrochloride] |
| 98 | 99 | Cc1cc(-c2ccc(C(=O)Nc3cc4sc(N5CCOCC5)nc4nc3N3CCC(O)(CO)CC3)o2)ccn1 [Example 2, N-(5-(4-hydroxy-4-(hydroxymethyl)piperidin-1-yl)-2-morpholinothiazolo[4,5-b]pyridin-6-yl)-5-(2-methylpyridin-4-yl)furan-2-carboxamide hydrochloride] |
| 12 | 60 | C[C@H](O)Cn1cc(-c2cccc(C(=O)Nc3cc4oc(N5CCOCC5)nc4nc3N3CC[C@@H](O)C3)n2)cn1 [Example 94, 6-(1-((S)-2-hydroxypropyl)-1H-pyrazol-4-yl)-N-(5-((R)-3-hydroxypyrrolidin-1-yl)-2-morpholinooxazolo[4,5-b]pyridin-6-yl)picolinamide] |
| 21 | 57 | Nc1cccc(-c2nc(C(=O)Nc3cc4oc(N5CCOCC5)nc4nc3N3CC[C@@H](O)C3)co2)n1 [Example 87, (R)-2-(6-aminopyridin-2-yl)-N-(5-(3-hydroxypyrrolidin-1-yl)-2-morpholinooxazolo[4,5-b]pyridin-6-yl)oxazole-4-carboxamide hydrochloride] |
| 93 | 95 | O=C(Nc1cc2sc(N3CCOCC3)nc2nc1N1CCCCC1)c1cccc(N2CCC(CO)CC2)n1 [Example 32, 6-(4-(hydroxymethyl)piperidin-1-yl)-N-(2-morpholino-5-(piperidin-1-yl)thiazolo[4,5-b]pyridin-6-yl)picolinamide] |
| 97 | 98 | CC(N)C(=O)O[C@H]1CCN(c2cccc(C(=O)Nc3cc4sc(N5CCOCC5)nc4nc3N3CCCCC3)n2)C1 (stereo partly drawn) [Example 57, (S)-1-(6-((2-morpholino-5-(piperidin-1-yl)thiazolo[4,5-b]pyridin-6-yl)carbamoyl)pyridin-2-yl)pyrrolidin-3-ylalaninate] |

| SMILES | inhibition at 0.1 µM [%] | inhibition at 1 µM [%] |
| --- | --- | --- |
| O=C(Nc1cc2sc(N3CCOCC3)nc2nc1N1CCCCC1)c1cccc(N2C3CCC2CC(O)C3)n1 (stereo not drawn) [Example 81, 6-(3-hydroxy-8-azabicyclo[3.2.1]octan-8-yl)-N-(2-morpholino-5-(piperidin-1-yl)thiazolo[4,5-b]pyridin-6-yl)picolinamide] | 88 | 94 |
